Assay results from patent EP4104902B1, “COMPOUNDS AND M[…] SAME” (priority 2020, dated 2021).

System: recombinant rabies virus 1088 strain expressing Gaussia Luciferase (GLuc) (1088/GLuc)
Format: cell-based
Settings: read-out: Anti-rabies activity

Row | SMILES | IC50
1 | CC(C)CC[C@@H]1[C@@H]2[C@@H]3CN[C@@]1(C(=O)NCCC(N)=O)C[C@@H]3CN2CC(C)C (relative stereo) [IF-300] | 10 to 30 µM
2 | CC(C)CC[C@@H]1[C@@H]2[C@@H]3CN[C@@]1(C(=O)NCCC(N)=O)C[C@@H]3CN2Cc1cccc2ccccc12 (relative stereo) [IF-384] | 10 to 30 µM
3 | N=C(N)NCCCNC(=O)[C@@]12C[C@@H]3CN(Cc4cccc5ccccc45)[C@@H]([C@@H]3CN1)[C@H]2Cc1ccccc1 (relative stereo) [IF-386] | 10 to 30 µM
4 | N=C(N)NCCCNC(=O)[C@@]12C[C@@H]3CN(Cc4cccc5ccccc45)[C@@H]([C@@H]3CN1)[C@H]2CCc1ccccc1 (relative stereo) [IF-389] | < 5 µM
5 | N=C(N)NCCCNC(=O)[C@@]12C[C@@H]3CN(Cc4cccc5ccccc45)[C@@H]([C@@H]3CN1)[C@H]2Cc1cccc2ccccc12 (relative stereo) [IF-390] | 10 to 30 µM
6 | CC(C)CC[C@@H]1[C@@H]2[C@@H]3CN[C@@]1(C(=O)NCC(C)C)C[C@@H]3CN2Cc1ccccc1 (relative stereo) [IF-411] | < 5 µM
7 | CC(C)CC[C@@H]1[C@@H]2[C@@H]3CN[C@@]1(C(=O)NCC(C)C)C[C@@H]3CN2CC(C)C (relative stereo) [IF-412] | < 5 µM
8 | CC(C)CCN1C[C@H]2C[C@]3(C(=O)NCCC(=O)O)NC[C@H]2[C@H]1[C@H]3Cc1cccc2ccccc12 (relative stereo) [IF-413] | 10 to 30 µM
9 | CC(C)CCN1C[C@H]2C[C@]3(C(=O)NCc4ccc(O)cc4)NC[C@H]2[C@H]1[C@H]3CCc1ccccc1 (relative stereo) [IF-464] | 10 to 30 µM
10 | CC(C)CCN1C[C@H]2C[C@]3(C(=O)NCc4ccc(O)cc4)NC[C@H]2[C@H]1[C@H]3Cc1cccc2ccccc12 (relative stereo) [IF-465] | 10 to 30 µM
11 | CC(C)CCN1C[C@H]2C[C@]3(C(=O)NCc4ccc(O)cc4)NC[C@H]2[C@H]1[C@H]3Cc1ccccc1 (relative stereo) [IF-466] | 10 to 30 µM
12 | CC(C)CC[C@@H]1[C@@H]2[C@@H]3CN[C@@]1(C(=O)NCc1ccc(O)cc1)C[C@@H]3CN2CCc1ccccc1 (relative stereo) [IF-468] | 10 to 30 µM
13 | O=C(NCc1ccc(O)cc1)[C@@]12C[C@@H]3CN(CCc4ccccc4)[C@@H]([C@@H]3CN1)[C@H]2Cc1ccccc1 (relative stereo) [IF-469] | 10 to 30 µM
14 | CC(C)C[C@@H]1[C@@H]2[C@@H]3CN[C@@]1(C(=O)NCc1ccc(O)cc1)C[C@@H]3CN2CCc1ccccc1 (relative stereo) [IF-470] | 10 to 30 µM
15 | O=C(NCc1ccc(O)cc1)[C@@]12C[C@@H]3CN(Cc4cccc5ccccc45)[C@@H]([C@@H]3CN1)[C@H]2Cc1ccccc1 (relative stereo) [IF-472] | < 5 µM
16 | CC(C)C[C@@H]1[C@@H]2[C@@H]3CN[C@@]1(C(=O)NCc1ccc(O)cc1)C[C@@H]3CN2Cc1cccc2ccccc12 (relative stereo) [IF-473] | < 5 µM
17 | CC(C)CC[C@@H]1[C@@H]2[C@@H]3CN[C@@]1(C(=O)NCc1ccc(O)cc1)C[C@@H]3CN2CC1CCCCC1 (relative stereo) [IF-474] | < 5 µM
18 | O=C(NCc1ccc(O)cc1)[C@@]12C[C@@H]3CN(CC4CCCCC4)[C@@H]([C@@H]3CN1)[C@H]2CCc1ccccc1 (relative stereo) [IF-475] | 10 to 30 µM
19 | O=C(NCc1ccc(O)cc1)[C@@]12C[C@@H]3CN(CC4CCCCC4)[C@@H]([C@@H]3CN1)[C@H]2Cc1ccccc1 (relative stereo) [IF-477] | < 5 µM
20 | CC(C)C[C@@H]1[C@@H]2[C@@H]3CN[C@@]1(C(=O)NCc1ccc(O)cc1)C[C@@H]3CN2CC1CCCCC1 (relative stereo) [IF-478] | < 5 µM
21 | CC(C)CC[C@@H]1[C@@H]2[C@@H]3CN[C@@]1(C(=O)NCc1ccc(O)cc1)C[C@@H]3CN2Cc1ccc(F)cc1 (relative stereo) [IF-479] | < 5 µM
22 | O=C(NCc1ccc(O)cc1)[C@@]12C[C@@H]3CN(Cc4ccc(F)cc4)[C@@H]([C@@H]3CN1)[C@H]2Cc1ccccc1 (relative stereo) [IF-481] | 10 to 30 µM
